Test results taken from ChEMBL document CHEMBL3885881, “DrugMatrix”.

Species on record: Rattus norvegicus
Experiment: DrugMatrix - Regimen: Daily Repeat
Format: toxicity, organism-based, Sprague-Dawley
Set-up: regimen Daily Repeat, gender Male, age 6-8 weeks
Settings: in vivo, sc, route subcutaneous, […]; for ABSOLUTE BASOPHIL / ABSOLUTE EOSINOPHIL / ABSOLUTE LYMPHOCYTE / ABSOLUTE MONOCYTE / ABSOLUTE SEGMENTED NEUTROPHIL / BASOPHIL / EOSINOPHIL / ERYTHROCYTE COUNT / HEMATOCRIT / HEMOGLOBIN / LEUKOCYTE COUNT / LYMPHOCYTE / MEAN CORPUSCULAR HEMOGLOBIN / MEAN CORPUSCULAR HEMOGLOBIN CONCENTRATION / MEAN CORPUSCULAR VOLUME / MONOCYTE / NEUTROPHIL / NUCLEATED RED BLOOD CELLS / PLATELET COUNT: tissue Blood; for ALANINE AMINOTRANSFERASE / ALBUMIN / ALKALINE PHOSPHATASE / ASPARTATE AMINOTRANSFERASE / BLOOD UREA NITROGEN / CARBON DIOXIDE / CHLORIDE / CHOLESTEROL / CREATINE PHOSPHOKINASE / CREATININE / GLUCOSE / LACTATE DEHYDROGENASE / LIPASE / PHOSPHORUS / POTASSIUM / SODIUM / TOTAL BILIRUBIN / TOTAL PROTEIN / URIC ACID: tissue Plasma
[1] = 0 mg/kg, 72 h, dose level Control, time 3 day
[2] = 0 mg/kg, 120 h, dose level Control, time 5 day
[3] = 1915 mg/kg, 72 h, dose level High, time 3 day
[4] = 1915 mg/kg, 120 h, dose level High, time 5 day

Cc1cc(O)cc(C)c1Cl [CHLOROXYLENOL]
ABSOLUTE BASOPHIL [1]: 0 CELLS/uL | ABSOLUTE EOSINOPHIL [1]: 92.33 CELLS/uL | ABSOLUTE LYMPHOCYTE [1]: 12247.5 CELLS/uL | ABSOLUTE MONOCYTE [1]: 389.67 CELLS/uL | ABSOLUTE SEGMENTED NEUTROPHIL [1]: 1320.5 CELLS/uL | BASOPHIL [1]: 0% | EOSINOPHIL [1]: 0.67% | ERYTHROCYTE COUNT [1]: 5.45 x10E6/uL | HEMATOCRIT [1]: 34.85% | HEMOGLOBIN [1]: 12.97 G/DL | LEUKOCYTE COUNT [1]: 14.05 x10E3/uL | LYMPHOCYTE [1]: 87.33% | MEAN CORPUSCULAR HEMOGLOBIN [1]: 23.78 pg | MEAN CORPUSCULAR HEMOGLOBIN CONCENTRATION [1]: 37.22 G/DL | MEAN CORPUSCULAR VOLUME [1]: 63.93 fL | MONOCYTE [1]: 2.67% | NEUTROPHIL [1]: 9.33% | NUCLEATED RED BLOOD CELLS [1]: 0 /100WBC | PLATELET COUNT [1]: 1174 x10E3/uL | ALANINE AMINOTRANSFERASE [1]: 48.83 u/L | ALBUMIN [1]: 4.23 G/DL | ALKALINE PHOSPHATASE [1]: 351.5 u/L | ASPARTATE AMINOTRANSFERASE [1]: 90 u/L | BLOOD UREA NITROGEN [1]: 15.33 mg/dL | CARBON DIOXIDE [1]: 23 mmol/L | CHLORIDE [1]: 103.5 MEQ/L | CHOLESTEROL [1]: 70.5 mg/dL | CREATINE PHOSPHOKINASE [1]: 651.83 u/L | CREATININE [1]: 0.22 mg/dL | GLUCOSE [1]: 180.67 mg/dL | LACTATE DEHYDROGENASE [1]: 165 u/L | LIPASE [1]: 9.33 u/L | PHOSPHORUS [1]: 12.03 mg/dL | POTASSIUM [1]: 6.17 MEQ/L | SODIUM [1]: 142.62 MEQ/L | TOTAL BILIRUBIN [1]: 0.2 mg/dL | TOTAL PROTEIN [1]: 5.73 G/DL | URIC ACID [1]: 1.77 mg/dL | ABSOLUTE BASOPHIL [2]: 0 CELLS/uL | ABSOLUTE EOSINOPHIL [2]: 0 CELLS/uL | ABSOLUTE LYMPHOCYTE [2]: 12736.67 CELLS/uL | ABSOLUTE MONOCYTE [2]: 253.5 CELLS/uL | ABSOLUTE SEGMENTED NEUTROPHIL [2]: 1193.17 CELLS/uL | BASOPHIL [2]: 0% | EOSINOPHIL [2]: 0% | ERYTHROCYTE COUNT [2]: 5.72 x10E6/uL | HEMATOCRIT [2]: 36.05% | HEMOGLOBIN [2]: 13.62 G/DL | LEUKOCYTE COUNT [2]: 14.18 x10E3/uL | LYMPHOCYTE [2]: 89.33% | MEAN CORPUSCULAR HEMOGLOBIN [2]: 23.83 pg | MEAN CORPUSCULAR HEMOGLOBIN CONCENTRATION [2]: 37.8 G/DL | MEAN CORPUSCULAR VOLUME [2]: 63.05 fL | MONOCYTE [2]: 1.83% | NEUTROPHIL [2]: 8.83% | NUCLEATED RED BLOOD CELLS [2]: 0 /100WBC | PLATELET COUNT [2]: 1322.17 x10E3/uL | ALANINE AMINOTRANSFERASE [2]: 48.83 u/L | ALBUMIN [2]: 4.27 G/DL | ALKALINE PHOSPHATASE [2]: 295.17 u/L | ASPARTATE AMINOTRANSFERASE [2]: 75.83 u/L | BLOOD UREA NITROGEN [2]: 15.5 mg/dL | CARBON DIOXIDE [2]: 30.5 mmol/L | CHLORIDE [2]: 102.33 MEQ/L | CHOLESTEROL [2]: 76.17 mg/dL | CREATINE PHOSPHOKINASE [2]: 205.5 u/L | CREATININE [2]: 0.2 mg/dL | GLUCOSE [2]: 149.67 mg/dL | LACTATE DEHYDROGENASE [2]: 124.5 u/L | LIPASE [2]: 10 u/L | PHOSPHORUS [2]: 10.93 mg/dL | POTASSIUM [2]: 6.59 MEQ/L | SODIUM [2]: 143.1 MEQ/L | TOTAL BILIRUBIN [2]: 0.2 mg/dL | TOTAL PROTEIN [2]: 6.05 G/DL | URIC ACID [2]: 1.45 mg/dL | ABSOLUTE BASOPHIL [3]: 0 CELLS/uL | ABSOLUTE EOSINOPHIL [3]: 0 CELLS/uL | ABSOLUTE LYMPHOCYTE [3]: 13518.33 CELLS/uL | ABSOLUTE MONOCYTE [3]: 372.33 CELLS/uL | ABSOLUTE SEGMENTED NEUTROPHIL [3]: 2242.67 CELLS/uL | BASOPHIL [3]: 0% | EOSINOPHIL [3]: 0% | ERYTHROCYTE COUNT [3]: 5.43 x10E6/uL | HEMATOCRIT [3]: 33.13% | HEMOGLOBIN [3]: 12.03 G/DL | LEUKOCYTE COUNT [3]: 16.13 x10E3/uL | LYMPHOCYTE [3]: 84.33% | MEAN CORPUSCULAR HEMOGLOBIN [3]: 22.17 pg | MEAN CORPUSCULAR HEMOGLOBIN CONCENTRATION [3]: 36.33 G/DL | MEAN CORPUSCULAR VOLUME [3]: 61.07 fL | MONOCYTE [3]: 2.33% | NEUTROPHIL [3]: 13.33% | NUCLEATED RED BLOOD CELLS [3]: 0 /100WBC | PLATELET COUNT [3]: 1126.33 x10E3/uL | ALANINE AMINOTRANSFERASE [3]: 50.33 u/L | ALBUMIN [3]: 3.67 G/DL | ALKALINE PHOSPHATASE [3]: 250.33 u/L | ASPARTATE AMINOTRANSFERASE [3]: 81.67 u/L | BLOOD UREA NITROGEN [3]: 18 mg/dL | CARBON DIOXIDE [3]: 24.33 mmol/L | CHLORIDE [3]: 104.33 MEQ/L | CHOLESTEROL [3]: 76.67 mg/dL | CREATINE PHOSPHOKINASE [3]: 276 u/L | CREATININE [3]: 0.18 mg/dL | GLUCOSE [3]: 175 mg/dL | LACTATE DEHYDROGENASE [3]: 84.67 u/L | LIPASE [3]: 8.67 u/L | PHOSPHORUS [3]: 11.43 mg/dL | POTASSIUM [3]: 6.05 MEQ/L | SODIUM [3]: 145.23 MEQ/L | TOTAL BILIRUBIN [3]: 0.13 mg/dL | TOTAL PROTEIN [3]: 5.67 G/DL | URIC ACID [3]: 2.13 mg/dL | ABSOLUTE BASOPHIL [4]: 0 CELLS/uL | ABSOLUTE EOSINOPHIL [4]: 164.67 CELLS/uL | ABSOLUTE LYMPHOCYTE [4]: 16889.67 CELLS/uL | ABSOLUTE MONOCYTE [4]: 1259.67 CELLS/uL | ABSOLUTE SEGMENTED NEUTROPHIL [4]: 6552.67 CELLS/uL | BASOPHIL [4]: 0% | EOSINOPHIL [4]: 0.67% | ERYTHROCYTE COUNT [4]: 5.49 x10E6/uL | HEMATOCRIT [4]: 33.1% | HEMOGLOBIN [4]: 12.6 G/DL | LEUKOCYTE COUNT [4]: 24.87 x10E3/uL | LYMPHOCYTE [4]: 68% | MEAN CORPUSCULAR HEMOGLOBIN [4]: 23.07 pg | MEAN CORPUSCULAR HEMOGLOBIN CONCENTRATION [4]: 38.1 G/DL | MEAN CORPUSCULAR VOLUME [4]: 60.43 fL | MONOCYTE [4]: 5% | NEUTROPHIL [4]: 26.33% | NUCLEATED RED BLOOD CELLS [4]: 0 /100WBC | PLATELET COUNT [4]: 1493 x10E3/uL | ALANINE AMINOTRANSFERASE [4]: 55.67 u/L | ALBUMIN [4]: 3.17 G/DL | ALKALINE PHOSPHATASE [4]: 330 u/L | ASPARTATE AMINOTRANSFERASE [4]: 87.67 u/L | BLOOD UREA NITROGEN [4]: 18.33 mg/dL | CARBON DIOXIDE [4]: 32 mmol/L | CHLORIDE [4]: 103.67 MEQ/L | CHOLESTEROL [4]: 77 mg/dL | CREATINE PHOSPHOKINASE [4]: 151 u/L | CREATININE [4]: 0.22 mg/dL | GLUCOSE [4]: 164 mg/dL | LACTATE DEHYDROGENASE [4]: 64 u/L | LIPASE [4]: 8 u/L | PHOSPHORUS [4]: 11.27 mg/dL | POTASSIUM [4]: 6.34 MEQ/L | SODIUM [4]: 145.63 MEQ/L | TOTAL BILIRUBIN [4]: 0.13 mg/dL | TOTAL PROTEIN [4]: 5.33 G/DL | URIC ACID [4]: 1.83 mg/dL
